# Publication PMC5190008, “BO-1055, a novel DNA cross-linking agent with remarkable low myelotoxicity shows potent activity in sarcoma models” (Oncotarget, 2016)
# What was measured:
# [1] = test system: Ewing sarcoma patient samples; test: Alamar Blue cell proliferation assay; type: cell-based, human
# Source text: Ewing sarcoma cell line A673, Prostate (PC-3, LNCaP, 22RV/HL2), colon (HCT-116), breast (MCF-7, MX-1), small cell lung cancer (H526) and renal (A-498, 786-0) cancer cell lines were purchased from American Type Culture Collection (ATCC, Manassas, VA). Dr. Marc Ladanyi (Department of Pathology, MSKCC) kindly provided the following cell lines: CHLA-9, TC32, RMS559 and TE-381. Dr. Gary Schwartz kindly provided the following osteosarcoma cell lines: OSA, U20S and SAOS. Dr. Constantine Markides, (CHRISTUS Stehlin Foundation for Cancer Research, TX) kindly provided Ewing sarcoma and desmoplastic small round cell tumor (DSRCT) cell lines, including CAR, ZUC, ORA, BER and BOD. Early cultures derived from Ewing sarcoma patient samples, including IARC-EW1, SIM-1 were obtained from the MSKCC monoclonal antibody core facility. […]
# AlamarBlue® assay (Invitrogen, Carlsbad, CA, USA) was performed to evaluate anti-proliferative activity of the drugs in cell lines and primary cells. […] The absorbance was measured using the Synergy H1 hybrid multi-mode microplate reader (BioTek, USA). The drug effect was quantified as the percentage of control absorbance at 540 nm and 585 nm. Optical density was determined for 3 replicates per treatment condition and cell proliferation in drug-treated cells was normalized to their respective controls. […]
# [2] = test system: human CD34+ hematopoietic stem cells isolated from cord blood; test: Colony forming unit (CFU) assay; type: cell-based; conditions: concentration < 5μM
# Procedure: We performed the colony forming unit (CFU) assays using human CD34+ hematopoietic stem cells isolated from cord blood to elucidate hematologic toxicity. We noted no effect on BFU-E, GM and mixed colonies at a concentration < 5μM of BO-1055 on CFU assay (Figure 2C).
# Colony assays were performed in triplicate in 24 well plates using 1.2% methylcellulose (Dow Chemical, Waterloo, NY), 30% FCS, 57.2 μM β-mercaptoethanol, 2 mM glutamine, 0.5 mM hemin (Sigma, USA), 20 ng/mL interleukin 3 (IL-3), granulocyte colony stimulating factor (G-CSF), c-KIT ligand (KL) and 6 U/mL erythropoietin (Epo). IL-3 and KL and Epo were obtained from R and D Systems (Minneapolis, USA) and G-CSF was from Amgen (Thousand Oaks, CA). Colonies were scored 14 days after plating as per the protocol described earlier.
smiles,measurement,setting,value
CN(C)CCNC(=O)c1cccc(NC(=O)Nc2ccc(N(CCCl)CCCl)cc2)c1 [BO-1055],IC50,[1],submicromolar
same,"effect on BFU-E, GM and mixed colonies",[2],no effect
